Laboratory results reported in patent US12213970B2, “Pyridinyl sulfonamide derivatives, pharmaceutical compositions and uses thereof” (Boehringer Ingelheim International GmbH, priority 2018, dated 2025).
Structures can show the parent of a compound that is named as a salt. Where two headings read alike, the source gives them in different places.

Tests used:
AOC2 = target: T1, AOC2 (Homo sapiens, UniProt O75106); experiment: AOC2 biochemical assay (Amplex Red)
T1 construct: host or cells: HEK293 cells (transient transfection), cell homogenate
T1 sequence (O75106 1-756): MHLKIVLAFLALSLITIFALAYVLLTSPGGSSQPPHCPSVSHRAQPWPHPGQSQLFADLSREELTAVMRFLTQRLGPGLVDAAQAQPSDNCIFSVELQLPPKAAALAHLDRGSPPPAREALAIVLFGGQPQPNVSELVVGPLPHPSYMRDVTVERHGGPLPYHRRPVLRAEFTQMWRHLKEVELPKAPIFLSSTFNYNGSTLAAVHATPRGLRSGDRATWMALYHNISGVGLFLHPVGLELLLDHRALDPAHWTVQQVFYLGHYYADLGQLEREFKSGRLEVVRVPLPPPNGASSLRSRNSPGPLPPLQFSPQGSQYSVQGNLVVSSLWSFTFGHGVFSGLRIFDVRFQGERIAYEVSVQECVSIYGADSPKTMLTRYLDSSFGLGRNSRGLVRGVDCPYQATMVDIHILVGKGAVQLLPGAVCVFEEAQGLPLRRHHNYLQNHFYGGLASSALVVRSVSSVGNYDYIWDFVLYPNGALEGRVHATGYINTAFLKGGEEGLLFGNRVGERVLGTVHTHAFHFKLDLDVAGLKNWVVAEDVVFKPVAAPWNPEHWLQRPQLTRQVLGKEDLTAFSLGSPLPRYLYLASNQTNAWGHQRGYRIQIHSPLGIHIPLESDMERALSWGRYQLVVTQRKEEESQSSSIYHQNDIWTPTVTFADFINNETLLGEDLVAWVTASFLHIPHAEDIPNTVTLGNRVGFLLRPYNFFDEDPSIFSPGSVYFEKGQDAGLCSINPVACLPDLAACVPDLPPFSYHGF
Description: The Amplex® Red Assay (commercially available from Thermo Fisher Scientific) provides a sensitive method for the detection of H2O2 generated during enzymatic reactions like the amine oxidation catalyzed by AOC2. […] An aliquot of 5 μL of the compound dilution is added to a 96 well plate (flat bottom F, black, GREINER bio-one, #655900) in a DMSO concentration of 2%. […] Cells are cultured for 3 days in EMEM culture medium containing 10% FCS (#04-00-1A, Biological Industries). After washing twice with ice cold PBS, cells are lysed by mechanic homogenation and cleared supernatants are shock frozen in liquid nitrogen and stored at -80° C. For the determination of AOC2 enzymatic activity cell lysates are thawed on ice and 1:1 diluted with reaction buffer. An Aliquot of 45 μL is added to the compound dilution and incubated for 30 min at 37° C. The enzymatic reaction is started with the addition of 50 μL of Amplex® Red reaction mix (final assay concentration: 100 mM sodiumphosphate, 120 μM Amplex® Red reagent (#A22177 Molecular Probes), 1.5 U/mL Horseradish Peroxidase (#P8375 Sigma-Aldrich), 2 mM phenylethylamine (#[…] Sigma-Aldrich), 0.05% Pluronic F-127 (#P3000MP Sigma-Aldrich), pH 7.4, 37° C.). The turnover per time of the substrate is determined directly with a fluorescence reader (Ex 540 nm/Em 590 nm) like Envision 2104 Multilabel Reader (PERKIN ELMER) for 60 min. (cf. Anal Biochem (1997) 253:169-174; Anal Biochem (1997) 253:162-168)

AOC1 = target: T2, AOC1 (Homo sapiens, UniProt P19801); experiment: AOC1 biochemical assay (Amplex Red)
T2 construct: purchased R&D Systems 8297-AO-010
T2 sequence (P19801 20-751): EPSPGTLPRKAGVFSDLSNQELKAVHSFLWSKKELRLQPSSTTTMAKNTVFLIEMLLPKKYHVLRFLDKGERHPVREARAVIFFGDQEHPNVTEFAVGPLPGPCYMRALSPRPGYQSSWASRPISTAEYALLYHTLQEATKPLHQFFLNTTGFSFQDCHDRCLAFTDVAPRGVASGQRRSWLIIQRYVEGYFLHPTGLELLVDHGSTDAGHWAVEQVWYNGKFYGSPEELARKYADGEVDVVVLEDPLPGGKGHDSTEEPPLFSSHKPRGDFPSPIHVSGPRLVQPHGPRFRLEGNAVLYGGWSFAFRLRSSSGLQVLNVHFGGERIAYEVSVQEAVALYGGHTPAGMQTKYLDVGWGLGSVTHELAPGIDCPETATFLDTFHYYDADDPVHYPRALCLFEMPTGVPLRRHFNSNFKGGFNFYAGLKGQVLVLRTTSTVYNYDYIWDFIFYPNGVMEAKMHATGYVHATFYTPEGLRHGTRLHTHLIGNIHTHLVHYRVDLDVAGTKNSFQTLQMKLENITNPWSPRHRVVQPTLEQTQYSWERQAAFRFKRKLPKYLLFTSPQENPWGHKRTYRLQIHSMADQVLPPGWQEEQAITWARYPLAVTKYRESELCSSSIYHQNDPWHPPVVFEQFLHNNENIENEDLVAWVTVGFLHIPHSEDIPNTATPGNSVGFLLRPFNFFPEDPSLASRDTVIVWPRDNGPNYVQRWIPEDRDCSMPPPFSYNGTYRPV
Description: The Amplex® Red Assay (available from Thermo Fisher Scientific) provides a sensitive method for the detection of H2O2 generated during enzymatic reactions like the amine oxidation catalyzed by AOC1. The assay reagent is a colorless substrate (N-acetyl-3,7-dihydroxyphenoxazine) that reacts in a 1:1 stoichiometry with hydrogen peroxide (H2O2) to produce the fluorescent dye resorufin (7-hydroxyphenoxazin-3-one, excitation/emission maxima=570/585 nm).
An aliquot of 3 μL of the compound dilution is added to a 384 well plate (Optiplate, PS, flat bottom F, black, PERKIN ELMER, #6007270) in a DMSO concentration of 6.6%.
An AOC1 enzyme aliquot (#8297-AO-010, R&D Systems) is thawed on ice, diluted in reaction buffer and added in a volume of 7 μL to the wells to give a final assay concentration of 1 ng/well. After incubation of inhibitor and enzyme for 30 minutes at 37° C., the enzymatic reaction is started with the addition of 10 μL of Amplex® Red reaction mix (final assay concentration: 100 mM sodiumphosphate, 120 μM Amplex® Red reagent (#A22177 Molecular Probes), 1.5 U/mL Horseradish Peroxidase (#P8375 Sigma-Aldrich), 200 μM putrescine (#P7505 Sigma-Alrdich), 0.05% Pluronic F-127 (#P3000MP Sigma-Aldrich), pH 7.4, 37° C.).
After an incubation for 30 minutes at 37° C. the turnover of the substrate is determined directly (or after the addition of an excess of an amine-oxidase inhibitor) with a fluorescence reader (Ex 540 nm/Em 590 nm) like Envision 2104 Multilabel Reader (PERKIN ELMER).

IC50 (AOC2; read-out: AOC2 IC50) | IC50 (AOC1; read-out: AOC1 IC50) | other results | Structure (SMILES)
176 nM | 1220 nM | – | NC/C(=C/F)COc1ccc(S(=O)(=O)N2CCC[C@@H]2C(N)=O)cn1 [Example 18]
39 nM | 5450 nM | – | COC(=O)CC1CCN(S(=O)(=O)c2ccc(OC/C(=C\F)CN)nc2)CC1 [Example 32]
93 nM | 13700 nM | – | NC/C(=C/F)COc1ccc(S(=O)(=O)N2C[C@H]3C[C@@]3(C(=O)N3CCOCC3)C2)cn1 [Example 22]
45 nM | > 50000 nM | – | NC/C(=C/F)COc1ccc(S(=O)(=O)N2CCC(C(=O)O)CC2)cn1 [Example 46]
63 nM | 911 nM | – | NC/C(=C/F)COc1ccc(S(=O)(=O)N2CC(C3CCN(C(=O)C4CC4)CC3)C2)cn1 [Example 26]
189 nM | 6250 nM | – | CN(C)C(=O)C1CCN(S(=O)(=O)c2ccc(OC/C(=C\F)CN)nc2)CC1 [Example 17]
222 nM | 4550 nM | – | CC(=O)N1CC(C2CCN(S(=O)(=O)c3ccc(OC/C(=C\F)CN)nc3)CC2)C1 [Example 9]
– | – | ratio IC50 AOC2/IC50 AOC3 (fold less active against AOC2 as compared to AOC3) (AOC2; AOC2 versus AOC3): 52 fold; IC50 (AOC2; comparison table, read-out: IC50 AOC2): 156 nM; IC50 (AOC1; comparison table, read-out: IC50 AOC1): 1750 nM | COC1CN(S(=O)(=O)c2ccc(OC/C(=C\F)CN)cc2)C1 [Reference compound A, reference compound]
40 nM | 781 nM | – | COC1CCN(S(=O)(=O)c2ccc(OC/C(=C\F)CN)nc2)CC1 [Example 40]
210 nM | 2550 nM | – | CNC(=O)[C@H]1CCN(S(=O)(=O)c2ccc(OC/C(=C\F)CN)nc2)C1 [Example 11]
120 nM | 15300 nM | – | CN1CCN(C2CCN(S(=O)(=O)c3ccc(OC/C(=C\F)CN)nc3)CC2)C1=O [Example 1, 1-{1-[6-((Z)-2-Aminomethyl-3-fluoro-allyloxy)-pyridine-3-sulfonyl]-piperidine-4-yl}-3-methyl-imidazolidin-2-one trifluoroacetate]
345 nM | 1220 nM | – | CNC(=O)[C@@H]1[C@@H]2CN(S(=O)(=O)c3ccc(OC/C(=C\F)CN)nc3)C[C@@H]21 [Example 5]
21 nM | 553 nM | – | CC1(C(N)=O)CCN(S(=O)(=O)c2ccc(OC/C(=C\F)CN)nc2)CC1 [Example 49]
3 nM | 1380 nM | – | COC(=O)C1(C)CCN(S(=O)(=O)c2ccc(OC/C(=C\F)CN)nc2)CC1 [Example 36]
61 nM | 235 nM | – | NC/C(=C/F)COc1ccc(S(=O)(=O)N2CCCCC2)cn1 [Example 38]
394 nM | 3420 nM | – | CN(C)C(=O)[C@H]1CCN(S(=O)(=O)c2ccc(OC/C(=C\F)CN)nc2)C1 [Example 4]
214 nM | 3180 nM | – | NC/C(=C/F)COc1ccc(S(=O)(=O)N2CCC(C(=O)N3CCC3)CC2)cn1 [Example 10]
– | – | IC50 (AOC2; read-out: IC50 AOC2): 2730 nM; IC50 (AOC1; read-out: IC50 AOC1): 70 nM | NC/C(=C/F)COc1cnc(N2CC[C@H](O)C2)nc1 [Z isomer of example 6 of WO 2018/027892, reference compound]
1 nM | > 50000 nM | – | NC/C(=C/F)COc1ccc(S(=O)(=O)N2CCC(CC(=O)O)CC2)cn1 [Example 44, trifluoroacetate]
205 nM | 667 nM | – | NC/C(=C/F)COc1ccc(S(=O)(=O)N2CCC[C@H]2C(N)=O)cn1 [Example 13]
272 nM | 1560 nM | – | NC/C(=C/F)COc1ccc(S(=O)(=O)N2CCC(C(N)=O)CC2)cn1 [Example 7]
72 nM | 1000 nM | – | CC(=O)N[C@@H]1CCCN(S(=O)(=O)c2ccc(OC/C(=C\F)CN)nc2)C1 [Example 24]
193 nM | 9880 nM | – | CNC(=O)C1CCN(S(=O)(=O)c2ccc(OC/C(=C\F)CN)nc2)CC1 [Example 37, trifluoroacetate]
189 nM | 441 nM | – | CC1(O)CN(S(=O)(=O)c2ccc(OC/C(=C\F)CN)nc2)C1 [Example 16]
209 nM | 3180 nM | – | CC(=O)NC1CCN(S(=O)(=O)c2ccc(OC/C(=C\F)CN)nc2)C1 (stereo not drawn) [Example 12]
40 nM | 869 nM | – | NC/C(=C/F)COc1ccc(S(=O)(=O)N2CC[C@@H](C(N)=O)C2)cn1 [Example 31]
73 nM | 13000 nM | – | CC1(C(=O)NC2CCOCC2)CCN(S(=O)(=O)c2ccc(OC/C(=C\F)CN)nc2)CC1 [Example 48, 1-[6-((Z)-2-Aminomethyl-3-fluoro-allyloxy)-pyridine-3-sulfonyl]-4-methyl-piperidine-4-carboxylic acid (tetrahydropyran-4-yl)-amide trifluoroacetate]
285 nM | 678 nM | – | CC(=O)N[C@H]1CCCN(S(=O)(=O)c2ccc(OC/C(=C\F)CN)nc2)C1 [Example 6]
